The values below come from US20040266766A1, “Selective urokinase inhibitors” (Wilex AG, priority 2001, published 2004).

Structures can show the parent of a compound that is named as a salt. Where two headings read alike, the source gives them in different places.

As usually defined, the Ki is a dissociation constant, usually derived from enzyme kinetics or from competition with a known ligand.

The target in series [1] is T1, urokinase (uPA) (Homo sapiens, UniProt P00749).
T1 construct: purchased Calbiochem-Novabiochem GmbH, Bad Soden, Germany
As to the kind of experiment: In vitro inhibition of urokinase (Ki according to Dixon, chromogenic substrate). It is filed as biochemical. On the procedure:
(§1) In order to determine the inhibitory activity, 200 μl Tris buffer (0.05 mol/l containing the inhibitor, 0.154 mol/l NaCl, pH 8.0), 25 μl substrate (Pefachrome uPA, Pefachrome PL or Pefabloc TH in H2O; Pentapharm Ltd, Basle, Switzerland) and 50 μl urokinase (Calbiochem-Novabiochem GmbH, Bad Soden, Germany) or another appropriate protease e.g. plasmin, thrombin or FXa are incubated for 10 minutes at 30° C. After ca. 30 minutes and 30 cycles the absorption is determined at 405 nm by means of a microplate reader (Mediators PHL, Aureon Biosystems, Vienna, Austria). The Ki values were determined according to Dixon by linear regression using a computer program.

Series [2] has as its target Thrombin (Homo sapiens, UniProt P00734). As to the kind of experiment: In vitro inhibition of thrombin (Ki according to Dixon). The class given is biochemical. How it is done: as §1
Series [3] addresses FXa (Homo sapiens, UniProt P00742). As to the kind of experiment: In vitro inhibition of FXa (Ki according to Dixon). It is filed as biochemical. How it is done:
as §1

For series [4], the target named is PK (Homo sapiens, UniProt P03952). As to the kind of experiment: In vitro inhibition of PK (Ki). The class given is biochemical. Conditions: summary table. How it is done: as §1
PK, sequence (P03952 20-638): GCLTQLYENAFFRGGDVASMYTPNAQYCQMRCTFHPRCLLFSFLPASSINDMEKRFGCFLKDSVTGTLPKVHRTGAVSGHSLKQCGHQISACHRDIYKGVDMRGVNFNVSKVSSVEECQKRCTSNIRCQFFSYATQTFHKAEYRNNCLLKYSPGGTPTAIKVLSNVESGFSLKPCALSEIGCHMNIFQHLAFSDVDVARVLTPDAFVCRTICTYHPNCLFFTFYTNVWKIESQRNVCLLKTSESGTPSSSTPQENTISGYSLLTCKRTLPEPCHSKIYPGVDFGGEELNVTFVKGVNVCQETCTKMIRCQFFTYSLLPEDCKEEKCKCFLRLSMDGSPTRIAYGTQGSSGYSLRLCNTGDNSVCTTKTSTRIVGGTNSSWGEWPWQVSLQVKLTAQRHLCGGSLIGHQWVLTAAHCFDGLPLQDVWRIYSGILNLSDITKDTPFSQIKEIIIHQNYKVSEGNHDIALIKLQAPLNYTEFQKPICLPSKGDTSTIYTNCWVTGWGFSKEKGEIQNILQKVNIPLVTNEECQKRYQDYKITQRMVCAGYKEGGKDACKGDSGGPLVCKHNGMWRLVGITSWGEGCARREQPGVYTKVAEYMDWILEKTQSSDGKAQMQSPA
Series [5] deals with Caco-2 cell monolayers. As to the kind of experiment: Caco-assay: transport across Caco-2 cell monolayers. The class given is in vitro ADME, human. The following applies: for % amount in the basolateral compartment: 10 μg/ml apical, four hours. On the procedure: Transport of the compounds WX-508, WXC-316, WXC-318, WXC-324, WXC-340, WX-532, WX-538, WX-550 and WX-582 across Caco-2 cell monolayers was investigated. In this experiment the bioavailability of the said compounds after oral administration was assessed.
Caco-2-cells (American Type Culture Collection, Rockville, Md., USA) were cultured in Dulbecco's modified Eagle medium (DMEM) (Life Technologies, Gibco BRL, UK) containing 10% vol/vol heat-denatured foetal calf serum (FCS), 1% vol/vol non-essential amino acids, 160 U/ml benzylpenicillin and 100 U/ml streptomycin (Sigma Chemical, St. Louis, Mo., USA). The cells are kept at 37° C. in an atmosphere comprising 95% air and 5% CO2 at 90% relative air humidity. The cells are cultured in […] culture flasks, the medium being replaced every second day and the cells are trypsinized once per week.
For the transport investigations the Caco-2 cells are cultured on porous polycarbonate filter membranes having a pore size of 0.4 μm and a surface of 4.7 cm^2 in clusters of 6 wells (Costar Transwell, Badhoevedorp, Netherlands). The cells are inoculated on each filter at an initial density of 10^4 cells/cm^2. These cells are kept at 37° C. in one of the atmospheres described above. The medium is replaced every second day for a period of three weeks.
On the day of the transport experiment the culture medium was replaced by the same volume of Hank's balanced saline solution (HBSS) buffered with 30 mM HEPES at pH 7.2 (transport medium) and the cells are allowed to equilibrate for 1 hour. Afterwards the apical medium is replaced by 1.5 ml of a solution containing one of the compounds in HBSS/HEPES (10 μg/ml). Cell monolayers are incubated for four hours. Samples of the apical and basolateral compartments are removed at the end of the experiments and used to quantitatively determine the transport of the respective compounds.
The transepithelial electric resistance (TEER) is measured before and after equilibration using a Milicell ERS meter which was connected to a pair of electrodes in order to ensure the integrity of the monolayers formed on the filters. TEER is also measured at the end of the experiments to ensure that the cell monolayer remains coherent.
Samples are taken from the apical and the basolateral side and analysed in a beta counter after adding a scintillation cocktail. All experiments were carried out three times.
A general note: Caco-2 cells form a polarised layer with tight junctions and transporters.

Series [6] in a line: Oral bioavailability and plasma kinetics in mice (serum concentration). The class given is in vivo, Balb/c mice. Conditions: mouse; for concentration at 20 min / concentration at 40 min / concentration at 60 min: female, Balb/c, serum, po, read-out: c in the serum 1st analysis; for concentration at 20 min: sample at 20 minutes; for concentration at 40 min: sample at 40 minutes; for concentration at 60 min: sample at 60 minutes.

The mark [7] stands for this setting: list of test substances of Example 17, read-out: Ki human uPA.
Setting [8] is: summary table, read-out: Ki uPA.
Setting [9] is: 10 mg/kg i.v., time of sample collection 0.
Where [10] appears, read: 10 mg/kg i.v., time of sample collection 10.
[11] abbreviates: 10 mg/kg i.v., time of sample collection 30.

FXa, sequence (P00742 235-488 limits assumed): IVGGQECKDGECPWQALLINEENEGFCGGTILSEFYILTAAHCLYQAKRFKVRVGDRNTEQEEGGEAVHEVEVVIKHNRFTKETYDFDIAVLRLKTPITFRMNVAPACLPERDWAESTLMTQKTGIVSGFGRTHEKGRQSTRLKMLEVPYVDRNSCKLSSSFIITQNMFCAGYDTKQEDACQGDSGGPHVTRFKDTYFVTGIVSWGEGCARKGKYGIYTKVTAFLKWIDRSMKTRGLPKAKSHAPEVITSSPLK
FXa, sequence (P00742 41-179 partner limits assumed): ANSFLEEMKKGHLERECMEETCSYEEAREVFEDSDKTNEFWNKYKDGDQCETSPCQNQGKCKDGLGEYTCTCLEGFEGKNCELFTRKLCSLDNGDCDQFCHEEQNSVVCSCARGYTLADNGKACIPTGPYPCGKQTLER

Take `N=C(N)Nc1ccc(CNC(=O)NNC(=O)[C@@H](CO)NS(=O)(=O)Cc2ccccc2)cc1` [WX-544, BzSO2-(D)-Ser-AzaGly-(4-guanidinobenzyl)amide]: the Ki in series [1] (read-out: Ki uPA) turned out to be 0.83 µM. Further, the “Ki Thrombin” value in series [2] is “no inh. at 100 μM *)”.

As for `N=C(N)Nc1ccc(S(=O)(=O)NCCNC(=O)C(CO)NS(=O)(=O)Cc2ccccc2)cc1` (centres unmarked) [WX-568, N-[2-(4-guanidino-benzenesulfonylamino)-ethyl]-3-hydroxy-2-phenylmethanesulfonylamino-propionamide hydrochloride], the Ki was 2.1 µM in series [1] (read-out: Ki uPA), > 1000 µM in series [2] and > 1000 µM in series [3].

Take `C[C@@H](C(=O)NCc1ccc(NC(=N)N)cc1)N(C)C(=O)[C@@H](CO)NS(=O)(=O)Cc1ccc(Cl)cc1` [WX-582, 4-chlorobenzylsulfonyl-(D)-Ser-N-Me-Ala-(4-guanidinobenzyl)amide]: the results for the Ki in series [1] (setting [7]), in series [1] (read-out: Ki uPA) and in series [4] were 0.01 µM, 0.01 µM and 58 µM, respectively. In addition, the “% amount in the basolateral compartment” value amounted to 0.4% in series [5] (first value column), 3.1% in series [5] (second value column) and 5.2% in series [5] (third value column). Besides, the “Caco-2 assay % basolateral” value in series [5] (first series, first value) was 0%; in series [5] (first series, second value), 3.1%; in series [5] (first series, third value), 5.2%; in series [5] (second series, first value) it was 0.4%; in series [5] (second series, second value), 2.9%; in series [5] (second series, third value) it was 3.0%. For the same compound, the concentration at 20 min is 0 ng/mL in series [6] (7.5 mg/kg, 7.5 mg/kg oral) and 1000 ng/mL in series [6] (75 mg/kg, 75 mg/kg oral). For the same compound, the concentration at 40 min in series [6] (7.5 mg/kg, 7.5 mg/kg oral) turned out to be 0 ng/mL; in series [6] (75 mg/kg, 75 mg/kg oral), 700 ng/mL. Also, the concentration at 60 min is 0 ng/mL in series [6] (7.5 mg/kg, 7.5 mg/kg oral) and 400 ng/mL in series [6] (75 mg/kg, 75 mg/kg oral). In addition, the “c in the serum 1st analysis” value in series [6] (2.5 mg/kg i.v., time of sample collection 0) came to 11.5 µg/mL; in series [6] (2.5 mg/kg i.v., time of sample collection 10), 0.8 µg/mL; in series [6] (2.5 mg/kg i.v., time of sample collection 30), 0.1 µg/mL.

As for `CC1(C)C2CCC1(CS(=O)(=O)NC(CO)C(=O)NCC(=O)NCc1ccc(NC(=N)N)cc1)C(=O)C2` (stereo not drawn) [WX-C298, (+)-Camphor-10-sulfonyl-(D)-Ser-Gly-(4-guanidinobenzyl)amide hydrochloride], the Ki in series [1] (read-out: Ki uPA) and in series [1] (setting [8]) was 0.16 µM in each case. Besides, the concentration at 20 min in series [6] (30 mg/kg, 30 mg/kg oral) is 200 ng/mL; in series [6] (300 mg/kg, 300 mg/kg oral), 17000 ng/mL. Further, the concentration at 40 min in series [6] (30 mg/kg, 30 mg/kg oral) was determined as 400 ng/mL; in series [6] (300 mg/kg, 300 mg/kg oral), 10700 ng/mL. The concentration at 60 min in series [6] (30 mg/kg, 30 mg/kg oral) stood at 100 ng/mL; in series [6] (300 mg/kg, 300 mg/kg oral), 7000 ng/mL. In addition, the “c in the serum 1st analysis” value amounted to 66.2 µg/mL in series [6] (setting [9]), 18.3 µg/mL in series [6] (setting [10]) and 2.1 µg/mL in series [6] (setting [11]).

As for `CCCCS(=O)(=O)NC(CO)C(=O)NCC(=O)NCc1ccc(NC(=N)N)cc1` (stereo not drawn) [WX-C300, n-Butyl-sulfonyl-(D)-Ser-Gly-(4-guanidinobenzyl)amide hydrochloride], the Ki in series [1] (setting [7]), in series [1] (read-out: Ki uPA) and in series [1] (setting [8]) was 0.27 µM each time. Besides, the concentration at 20 min turned out to be 200 ng/mL in series [6] (30 mg/kg, 30 mg/kg oral) and 1500 ng/mL in series [6] (300 mg/kg, 300 mg/kg oral). For the same compound, the concentration at 40 min in series [6] (30 mg/kg, 30 mg/kg oral) worked out at 200 ng/mL; in series [6] (300 mg/kg, 300 mg/kg oral), 4600 ng/mL. Besides, the concentration at 60 min came to 200 ng/mL in series [6] (30 mg/kg, 30 mg/kg oral) and 600 ng/mL in series [6] (300 mg/kg, 300 mg/kg oral). The figures for the “c in the serum 1st analysis” value in series [6] (setting [9]), in series [6] (setting [10]) and in series [6] (setting [11]) were 94.4 µg/mL, 11.0 µg/mL and 1.3 µg/mL, respectively.

For `N=C(N)Nc1ccc(CNC(=O)CNC(=O)C(CO)NC(=O)Nc2cccc(C(=O)O)c2)cc1` (stereo not drawn) [WX-C324, 3-Carboxyphenyl-aminocarbonyl-(D)-Ser-Gly-(4-guanidinobenzyl)amide hydrochloride], the Ki in series [1] (read-out: Ki uPA) is 3.1 µM. The “% amount in the basolateral compartment” value in series [5] (first value column) was determined as 0.1%; in series [5] (second value column), 0.1%; in series [5] (third value column) it was 2.0%. In addition, the “Caco-2 assay % basolateral” value in series [5] (first series, first value) came out at 0.1%; in series [5] (first series, second value) it was 0.1%; in series [5] (first series, third value) it was 2.9%; in series [5] (second series, first value), 0%; in series [5] (second series, second value) it was 0%; in series [5] (second series, third value), 3.0%.
